Assay results taken from the supplement of paper PMC10307832.

What was measured:
Assay in all cases: relative viability (nuclei count vs DMSO), 5 days (fraction); higher = more cells survive
NCI-H596 = system: NCI-H596
Procedure, shortened: (§1)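 Lung cancer cell lines were pin-tool dosed in 1536-well plates on the day after seeding, with either a lone drug or a fixed anchor-drug dose plus five library-drug doses (not always all listed) in √10 steps. Nuclei were counted on 4× images after 5 days. Relative viability is the ratio of treated-well to vehicle-well nuclei counts, with each value a median of duplicate plates.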

SK-LU-1 = system: SK-LU-1
Procedure, shortened: as §1

PC-3 [JPC-3] = system: PC-3 [JPC-3]
Procedure, shortened: as §1

NCI-H1755 = system: NCI-H1755
Procedure, shortened: as §1

NCI-H2009 = system: NCI-H2009
Procedure, shortened: as §1

PC-14 = system: PC-14
Procedure, shortened: as §1

NCI-H460 = system: NCI-H460
Procedure, shortened: as §1

NCI-H1437 = system: NCI-H1437
Procedure, shortened: as §1

HCC-15 = system: HCC-15
Procedure, shortened: as §1

LXF-289 = system: LXF-289
Procedure, shortened: as §1

H3255 = system: H3255
Procedure, shortened: as §1

NCI-H1793 = system: NCI-H1793
Procedure, shortened: as §1

A-427 = system: A-427
Procedure, shortened: as §1

NCI-H1915 = system: NCI-H1915
Procedure, shortened: as §1

UMC-11 = system: UMC-11
Procedure, shortened: as §1

NCI-H441 = system: NCI-H441
Procedure, shortened: as §1

NCI-H3122 = system: NCI-H3122
Procedure, shortened: as §1

HARA = system: HARA
Procedure, shortened: as §1

HCC-366 = system: HCC-366
Procedure, shortened: as §1

NCI-H2405 = system: NCI-H2405
Procedure, shortened: as §1

NCI-H1975 = system: NCI-H1975
Procedure, shortened: as §1

NCI-H650 = system: NCI-H650
Procedure, shortened: as §1

NCI-H2023 = system: NCI-H2023
Procedure, shortened: as §1

O=c1[nH]c2ccccc2n1C1CCN(CCCC(c2ccc(F)cc2)c2ccc(F)cc2)CC1 [Pimozide] + CS(=O)(=O)N1CCN(Cc2cc3nc(-c4cccc5[nH]ncc45)nc(N4CCOCC4)c3s2)CC1 [Pictilisib] (partner 1 µM)
relative viability (NCI-H596; first compound 0.08 µM): 0.414
relative viability (NCI-H596; first compound 0.253 µM): 0.488
relative viability (NCI-H596; first compound 0.8 µM): 0.251
relative viability (NCI-H596; first compound 2.53 µM): 0.356
relative viability (NCI-H596; first compound 8 µM): 0.344
relative viability (SK-LU-1; first compound 0.08 µM): 0.643
relative viability (SK-LU-1; first compound 0.253 µM): 0.566
relative viability (SK-LU-1; first compound 0.8 µM): 0.551
relative viability (SK-LU-1; first compound 2.53 µM): 0.436
relative viability (SK-LU-1; first compound 8 µM): 0.469
relative viability (PC-3 [JPC-3]; first compound 0.253 µM): 0.695
relative viability (PC-3 [JPC-3]; first compound 0.8 µM): 0.654
relative viability (PC-3 [JPC-3]; first compound 2.53 µM): 0.698
relative viability (PC-3 [JPC-3]; first compound 8 µM): 0.686
relative viability (NCI-H1755; first compound 0.08 µM): 0.438
relative viability (NCI-H1755; first compound 0.253 µM): 0.441
relative viability (NCI-H1755; first compound 0.8 µM): 0.418
relative viability (NCI-H1755; first compound 2.53 µM): 0.368
relative viability (NCI-H1755; first compound 8 µM): 0.307
relative viability (NCI-H2009; first compound 0.08 µM): 0.853
relative viability (NCI-H2009; first compound 0.253 µM): 0.923
relative viability (NCI-H2009; first compound 0.8 µM): 0.786
relative viability (NCI-H2009; first compound 2.53 µM): 0.769
relative viability (NCI-H2009; first compound 8 µM): 0.575
relative viability (PC-14; first compound 0.253 µM): 0.631
relative viability (PC-14; first compound 0.8 µM): 0.738
relative viability (PC-14; first compound 2.53 µM): 0.716
relative viability (PC-14; first compound 8 µM): 0.634
relative viability (NCI-H460; first compound 0.08 µM): 0.236
relative viability (NCI-H460; first compound 0.253 µM): 0.385
relative viability (NCI-H460; first compound 0.8 µM): 0.386
relative viability (NCI-H460; first compound 2.53 µM): 0.353
relative viability (NCI-H460; first compound 8 µM): 0.366
relative viability (NCI-H1437; first compound 0.08 µM): 0.543
relative viability (NCI-H1437; first compound 0.253 µM): 0.464
relative viability (NCI-H1437; first compound 0.8 µM): 0.499
relative viability (NCI-H1437; first compound 2.53 µM): 0.421
relative viability (NCI-H1437; first compound 8 µM): 0.406
relative viability (HCC-15; first compound 0.08 µM): 0.809
relative viability (HCC-15; first compound 0.253 µM): 0.767
relative viability (HCC-15; first compound 0.8 µM): 0.616
relative viability (HCC-15; first compound 2.53 µM): 0.709
relative viability (HCC-15; first compound 8 µM): 0.749
relative viability (LXF-289; first compound 0.08 µM): 0.75
relative viability (LXF-289; first compound 0.253 µM): 0.799
relative viability (LXF-289; first compound 0.8 µM): 0.781
relative viability (LXF-289; first compound 2.53 µM): 0.744
relative viability (LXF-289; first compound 8 µM): 0.719
relative viability (H3255; first compound 0.253 µM): 0.406
relative viability (H3255; first compound 0.8 µM): 0.575
relative viability (H3255; first compound 2.53 µM): 0.456
relative viability (H3255; first compound 8 µM): 0.506
relative viability (NCI-H1793; first compound 0.08 µM): 0.296
relative viability (NCI-H1793; first compound 0.253 µM): 0.302
relative viability (NCI-H1793; first compound 0.8 µM): 0.311
relative viability (NCI-H1793; first compound 2.53 µM): 0.357
relative viability (NCI-H1793; first compound 8 µM): 0.275
relative viability (A-427; first compound 0.08 µM): 0.723
relative viability (A-427; first compound 0.253 µM): 0.729
relative viability (A-427; first compound 0.8 µM): 0.538
relative viability (A-427; first compound 2.53 µM): 0.68
relative viability (A-427; first compound 8 µM): 0.668
relative viability (NCI-H1915; first compound 0.08 µM): 0.972
relative viability (NCI-H1915; first compound 0.253 µM): 0.892
relative viability (NCI-H1915; first compound 0.8 µM): 0.524
relative viability (NCI-H1915; first compound 2.53 µM): 0.889
relative viability (NCI-H1915; first compound 8 µM): 0.796
relative viability (UMC-11; first compound 0.08 µM): 0.79
relative viability (UMC-11; first compound 0.253 µM): 0.804
relative viability (UMC-11; first compound 0.8 µM): 0.746
relative viability (UMC-11; first compound 2.53 µM): 0.699
relative viability (UMC-11; first compound 8 µM): 0.906
relative viability (NCI-H441; first compound 0.08 µM): 0.593
relative viability (NCI-H441; first compound 0.253 µM): 0.445
relative viability (NCI-H441; first compound 0.8 µM): 0.491
relative viability (NCI-H441; first compound 2.53 µM): 0.447
relative viability (NCI-H441; first compound 8 µM): 0.344
relative viability (NCI-H3122; first compound 0.08 µM): 0.523
relative viability (NCI-H3122; first compound 0.253 µM): 0.588
relative viability (NCI-H3122; first compound 0.8 µM): 0.514
relative viability (NCI-H3122; first compound 2.53 µM): 0.594
relative viability (NCI-H3122; first compound 8 µM): 0.573
relative viability (HARA; first compound 0.08 µM): 0.252
relative viability (HARA; first compound 0.253 µM): 0.423
relative viability (HARA; first compound 0.8 µM): 0.595
relative viability (HARA; first compound 2.53 µM): 0.351
relative viability (HARA; first compound 8 µM): 0.368
relative viability (HCC-366; first compound 0.08 µM): 0.164
relative viability (HCC-366; first compound 0.253 µM): 0.154
relative viability (HCC-366; first compound 0.8 µM): 0.165
relative viability (HCC-366; first compound 2.53 µM): 0.0834
relative viability (HCC-366; first compound 8 µM): 0.118
relative viability (NCI-H2405; first compound 0.08 µM): 0.482
relative viability (NCI-H2405; first compound 0.253 µM): 0.371
relative viability (NCI-H2405; first compound 0.8 µM): 0.422
relative viability (NCI-H2405; first compound 2.53 µM): 0.42
relative viability (NCI-H2405; first compound 8 µM): 0.349
relative viability (NCI-H1975; first compound 0.08 µM): 0.282
relative viability (NCI-H1975; first compound 0.253 µM): 0.262
relative viability (NCI-H1975; first compound 0.8 µM): 0.297
relative viability (NCI-H1975; first compound 2.53 µM): 0.28
relative viability (NCI-H1975; first compound 8 µM): 0.202
relative viability (NCI-H650; first compound 0.08 µM): 0.851
relative viability (NCI-H650; first compound 0.253 µM): 0.852
relative viability (NCI-H650; first compound 0.8 µM): 0.878
relative viability (NCI-H650; first compound 2.53 µM): 0.92
relative viability (NCI-H650; first compound 8 µM): 1.09
relative viability (NCI-H2023; first compound 0.08 µM): 0.214
relative viability (NCI-H2023; first compound 0.253 µM): 0.24
relative viability (NCI-H2023; first compound 0.8 µM): 0.212
relative viability (NCI-H2023; first compound 2.53 µM): 0.223
relative viability (NCI-H2023; first compound 8 µM): 0.202
